Measured values reported in patent US20220153744A1, “SOLID STATE FORMS OF ACALABRUTINIB” (ASSIA CHEMICAL INDUSTRIES LTD., priority 2019, published 2022).

Experiments:
Assay type in all cases: physicochemical
[1] = Polymorphic stability on storage at defined temperature and relative humidity
Description: (§1) Crystalline Form ACB3 of Acalabrutinib may have advantageous properties as described herein above.

[2] = Polymorphic stability on heating; conditions: heated to about 100° C. over about 30 minutes
Description: as §1

[3] = Polymorphic stability towards grinding
Description: as §1

- polymorphic stability on storage ([1]; 40° C., RH of about 75%, at least 1 month): polymorphically stable
- polymorphic stability on storage ([1]; room temperature, RH of about 60%, at least 1 month): polymorphically stable
- polymorphic stability on storage ([1]; room temperature, RH of about 80%, at least 7 days): polymorphically stable
- polymorphic stability when heated [2]: polymorphically stable
- polymorphic stability towards solvent grinding ([3]; solvent grinding): polymorphically stable
- polymorphic stability towards strong dry grinding ([3]; strong dry grinding): polymorphically stable
SMILES: CC#CC(=O)N1CCC[C@H]1c1nc(-c2ccc(C(=O)Nc3ccccn3)cc2)c2c(N)nccn12 [Form ACB3, 4-{8-Amino-3-[(2S)-1-(2-butynoyl)-2-pyrrolidinyl]imidazo[1,5-a]pyrazin-1-yl}-N-(2-pyridinyl)benzamide]
